In patent US20170135981A1, “Method for Suppressing Glucagon Secretion of an SGLT2 Inhibitor” (AstraZeneca AB, priority 2014, published 2017):

Tested on: glucagon secretion
Assay: Plasma glucagon during a liquid meal tolerance test (MTT) at week 24, radioimmunoassay, randomized 24-week study
Assay type: in vivo, human
Details: summary of Table 1, added to metformin
Procedure: At the beginning of a 4-week lead-in period, all patients were switched to the nearest metformin XR dose (1,500-2,000 mg/day) for the lead-in period and for the duration of the 24-week treatment period. Patients were then randomized to receive saxagliptin 5 mg/day and dapagliflozin 10 mg/day plus metformin (SAXA+DAPA+MET), saxagliptin 5 mg/day and placebo plus metformin (SAXA+MET), or dapagliflozin 10 mg/day and placebo plus metformin (DAPA+MET) for 24 weeks. Patients were prohibited from receiving other antidiabetic medications (except for open-label rescue medications) during the screening and treatment periods. Postprandial glucose (PPG) was assessed at baseline and week 24 following the administration of a liquid meal tolerance test (MTT, 360-375 kcal; protein, 14-28.2 g; fat, 10.5-14 g; carbohydrates 42-45 g; sugars as a component of carbohydrates, 16.8-22 g, investigation-site dependent). […] The mean change from baseline in the area under the curve from 0 to 180 minutes (AUC0-180 min) was calculated for glucagon obtained during the MTT. Plasma glucagon was measured by radioimmunoassay (LINCO Research, St. Charles, Mo.). AUC0-180 min was calculated based on the trapezoidal rule from model-based estimates of the mean at each time point, including observations prior to rescue. […]

CCOc1ccc(Cc2cc([C@@H]3O[C@H](CO)[C@@H](O)[C@H](O)[C@H]3O)ccc2Cl)cc1 [dapagliflozin]
effect on glucagon levels (in words): increased compared to control
